Measured values: ChEMBL document CHEMBL1201862, “PubChem BioAssay data set” (2004)
Calls of active or inactive are those of the source.

Assays:
Protein RecA = biological target: T1, Protein RecA (Mycobacterium tuberculosis, UniProt P9WHJ3); experiment: Fluorescence Cell-Free Homogeneous Dose Retest to Identify Inhibitors of RecA-Intein Splicing Activity. [Related pubchem assays (depositor defined):AID2097, AID2223, AID489010, AID492950]; format: functional
T1 sequence (P9WHJ3 whole entry): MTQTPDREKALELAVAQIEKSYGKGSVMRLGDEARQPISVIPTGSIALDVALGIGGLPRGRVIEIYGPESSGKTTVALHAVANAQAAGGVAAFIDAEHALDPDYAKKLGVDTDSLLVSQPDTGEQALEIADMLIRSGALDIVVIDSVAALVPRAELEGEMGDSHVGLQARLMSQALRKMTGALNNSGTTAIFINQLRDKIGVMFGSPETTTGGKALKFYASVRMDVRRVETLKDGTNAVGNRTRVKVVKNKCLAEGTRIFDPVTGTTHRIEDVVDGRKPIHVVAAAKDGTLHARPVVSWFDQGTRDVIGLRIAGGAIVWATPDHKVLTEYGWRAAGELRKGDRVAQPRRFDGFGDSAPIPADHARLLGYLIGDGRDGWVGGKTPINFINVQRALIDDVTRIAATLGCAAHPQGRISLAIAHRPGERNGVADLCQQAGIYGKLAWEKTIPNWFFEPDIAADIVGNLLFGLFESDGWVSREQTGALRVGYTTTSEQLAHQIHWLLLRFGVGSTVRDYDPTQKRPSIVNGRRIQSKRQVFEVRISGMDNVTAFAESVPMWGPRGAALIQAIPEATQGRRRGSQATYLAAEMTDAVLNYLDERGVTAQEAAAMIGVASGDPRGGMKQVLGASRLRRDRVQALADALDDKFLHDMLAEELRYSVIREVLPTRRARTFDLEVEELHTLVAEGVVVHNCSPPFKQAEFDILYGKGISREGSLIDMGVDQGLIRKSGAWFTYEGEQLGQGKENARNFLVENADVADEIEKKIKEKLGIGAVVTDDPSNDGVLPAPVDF

[1] = biological target: T2, RNA-binding protein pos-1 (Caenorhabditis elegans, UniProt G5EF15); experiment: disruptors of C. elegans POS-1 RNA interaction – biochemical, fluorescence polarization, dose response (AID 1964);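 further: purified POS-1 fused to maltose binding protein made in E. coli; potency of compounds blocking POS-1 binding to fluorescent RNA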
T2 sequence (G5EF15 whole entry): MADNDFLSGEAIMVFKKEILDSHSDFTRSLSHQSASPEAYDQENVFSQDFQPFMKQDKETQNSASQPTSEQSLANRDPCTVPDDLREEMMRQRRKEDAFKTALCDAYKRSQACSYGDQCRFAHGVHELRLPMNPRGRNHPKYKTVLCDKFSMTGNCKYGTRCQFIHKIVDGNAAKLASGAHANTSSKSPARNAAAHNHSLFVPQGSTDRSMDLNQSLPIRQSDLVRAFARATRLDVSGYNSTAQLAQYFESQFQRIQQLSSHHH

[2] = biological target: T3, Sentrin-specific protease 8 (Homo sapiens, UniProt Q96LD8); format: functional
T3 sequence (Q96LD8 whole entry): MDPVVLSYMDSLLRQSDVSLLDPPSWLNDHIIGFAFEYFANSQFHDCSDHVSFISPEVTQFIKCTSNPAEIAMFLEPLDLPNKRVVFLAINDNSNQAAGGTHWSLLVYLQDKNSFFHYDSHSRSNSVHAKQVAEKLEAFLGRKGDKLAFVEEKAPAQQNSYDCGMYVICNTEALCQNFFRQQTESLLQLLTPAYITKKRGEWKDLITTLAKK

[3] = biological target: T4, Zinc finger protein mex-5 (Caenorhabditis elegans, UniProt Q9XUB2); experiment: potency of MEX-5 RNA-binding blockers – biochemical, C. elegans, fluorescence polarization, dose response (AID 1960)
T4 sequence (Q9XUB2 whole entry): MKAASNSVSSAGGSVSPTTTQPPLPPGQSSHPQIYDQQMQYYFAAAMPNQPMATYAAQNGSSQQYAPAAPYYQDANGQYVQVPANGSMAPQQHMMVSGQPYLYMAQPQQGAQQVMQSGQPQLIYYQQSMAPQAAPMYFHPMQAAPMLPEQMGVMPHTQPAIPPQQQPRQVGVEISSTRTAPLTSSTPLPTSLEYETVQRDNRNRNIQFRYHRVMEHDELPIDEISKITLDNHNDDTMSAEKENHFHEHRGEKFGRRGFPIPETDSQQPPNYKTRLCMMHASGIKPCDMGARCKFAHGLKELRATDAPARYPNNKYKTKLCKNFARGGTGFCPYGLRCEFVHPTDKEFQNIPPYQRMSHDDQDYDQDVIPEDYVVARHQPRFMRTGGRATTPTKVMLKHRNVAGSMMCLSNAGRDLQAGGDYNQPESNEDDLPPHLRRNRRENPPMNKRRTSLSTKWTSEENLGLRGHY

[4] = biological target: T5, Replicative DNA helicase DnaB (Mycobacterium tuberculosis, UniProt P9WMR3); experiment: DnaB intein splicing inhibitors, dose response, biochemical, cell-free fluorescence (AID 449749); format: functional
T5 sequence (P9WMR3 whole entry): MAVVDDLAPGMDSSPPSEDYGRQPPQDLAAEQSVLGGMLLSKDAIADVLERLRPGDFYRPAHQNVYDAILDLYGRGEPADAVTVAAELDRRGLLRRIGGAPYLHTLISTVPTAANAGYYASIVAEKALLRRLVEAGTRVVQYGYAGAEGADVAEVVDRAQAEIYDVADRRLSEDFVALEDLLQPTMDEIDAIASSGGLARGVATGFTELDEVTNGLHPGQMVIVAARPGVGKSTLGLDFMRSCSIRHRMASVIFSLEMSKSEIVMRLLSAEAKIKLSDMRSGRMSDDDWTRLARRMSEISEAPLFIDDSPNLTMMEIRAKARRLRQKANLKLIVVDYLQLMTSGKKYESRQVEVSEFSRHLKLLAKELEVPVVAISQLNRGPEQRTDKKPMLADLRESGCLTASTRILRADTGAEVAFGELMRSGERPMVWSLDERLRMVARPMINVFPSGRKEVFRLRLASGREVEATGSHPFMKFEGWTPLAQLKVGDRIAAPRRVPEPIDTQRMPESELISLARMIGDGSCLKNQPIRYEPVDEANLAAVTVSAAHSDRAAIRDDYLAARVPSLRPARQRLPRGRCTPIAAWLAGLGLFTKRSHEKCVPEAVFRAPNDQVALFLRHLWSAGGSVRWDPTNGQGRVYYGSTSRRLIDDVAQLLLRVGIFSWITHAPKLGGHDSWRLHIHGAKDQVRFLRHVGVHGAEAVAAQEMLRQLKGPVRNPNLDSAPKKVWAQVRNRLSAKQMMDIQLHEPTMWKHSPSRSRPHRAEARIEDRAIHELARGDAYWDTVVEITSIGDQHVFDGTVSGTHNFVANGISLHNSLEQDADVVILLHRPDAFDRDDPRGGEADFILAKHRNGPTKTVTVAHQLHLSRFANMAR

[5] = biological target: T6, Tyrosyl-DNA phosphodiesterase 2 (Homo sapiens, UniProt O95551); experiment: potency against TDP2 phosphodiesterase activity – biochemical, epi absorbance, IC50, dose response (AID 743297)
T6 sequence (O95551 whole entry): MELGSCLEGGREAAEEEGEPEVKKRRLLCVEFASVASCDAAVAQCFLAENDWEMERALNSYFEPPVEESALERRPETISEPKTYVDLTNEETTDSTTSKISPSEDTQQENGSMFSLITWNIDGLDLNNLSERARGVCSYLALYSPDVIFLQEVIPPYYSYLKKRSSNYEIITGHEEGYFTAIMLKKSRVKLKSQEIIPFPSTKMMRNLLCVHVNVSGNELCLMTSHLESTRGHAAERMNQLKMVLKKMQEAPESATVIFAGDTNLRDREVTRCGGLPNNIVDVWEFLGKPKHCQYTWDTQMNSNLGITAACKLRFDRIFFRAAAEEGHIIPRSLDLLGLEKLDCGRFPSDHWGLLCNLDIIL

[6] = biological target: T3, Sentrin-specific protease 8; format: functional; remark: listed apart in the source
[7] = inhibition of ARNT PAS-B/TACC3 complex formation – biochemical, AlphaScreen, cherry-picked samples, confirmation (AID 651703); format: functional, Homo sapiens;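 further: His-tagged ARNT PAS-B domain paired with GST-TACC3 E629A dimer coactivator fragment; potency of inhibitors that break up the complex and lower AlphaScreen signal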
[8] = viability loss in HEK293T cells – cell-based, cherry-picks, cytotoxicity control for HIV Vif inhibitor project, dose response (AID 652208); format: functional
[9] = system: Streptococcus sp. 'group A'; experiment: Streptococcus pyogenes SK(-)GAS viability under kanamycin – luminescence, BacTiterGlo, confirmation, counter-screen for streptokinase expression inhibitor project, dose response (AID 1900); format: functional, organism-based
Streptococcus = experiment: GAS UMAA2166 growth inhibition – luminescence, BacTiterGlo, counter-screen for streptokinase expression inhibitor project, dose response (AID 1915); format: functional, organism-based;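 further: potency for reduction of bacterial viability or growth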
[10] = Luminescence Cell-Based Dose Retest to Confirm Inhibitors of Cancer Stem Cells. [Related pubchem assays (depositor defined):AID2717, AID2721]; format: functional; settings: Homo sapiens
[11] = biological target: T7, Corticotropin-releasing factor receptor 2/Corticotropin-releasing factor-binding protein (Homo sapiens, UniProt P24387+Q13324); experiment: activators of CRF receptor 2 with binding protein – uHTS hits, confirmation (AID 602473); format: functional; settings: read-out: EC50_Mean
T7 sequence (Q13324 whole entry): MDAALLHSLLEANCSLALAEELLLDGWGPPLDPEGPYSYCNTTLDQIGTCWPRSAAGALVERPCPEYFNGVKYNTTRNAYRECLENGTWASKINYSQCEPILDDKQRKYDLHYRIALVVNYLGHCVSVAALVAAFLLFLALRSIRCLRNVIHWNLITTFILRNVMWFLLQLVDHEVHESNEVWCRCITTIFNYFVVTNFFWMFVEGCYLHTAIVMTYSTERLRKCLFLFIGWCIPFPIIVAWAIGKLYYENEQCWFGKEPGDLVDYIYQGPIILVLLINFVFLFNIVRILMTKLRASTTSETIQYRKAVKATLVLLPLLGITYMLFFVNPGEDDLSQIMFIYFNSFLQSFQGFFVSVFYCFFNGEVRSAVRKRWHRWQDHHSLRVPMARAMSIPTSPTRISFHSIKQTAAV
T7 sequence (P24387 whole entry): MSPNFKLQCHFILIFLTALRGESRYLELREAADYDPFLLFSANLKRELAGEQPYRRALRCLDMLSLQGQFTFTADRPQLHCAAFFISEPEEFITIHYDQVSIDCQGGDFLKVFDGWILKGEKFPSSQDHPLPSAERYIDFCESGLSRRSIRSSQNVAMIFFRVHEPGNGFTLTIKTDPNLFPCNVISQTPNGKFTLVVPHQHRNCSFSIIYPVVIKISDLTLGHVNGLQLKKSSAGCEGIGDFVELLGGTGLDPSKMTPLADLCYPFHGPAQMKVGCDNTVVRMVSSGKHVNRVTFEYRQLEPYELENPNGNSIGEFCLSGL

[12] = HIV-1 AD8 envelope cell-cell fusion blockers – cherry-pick, dose response (AID 652062); format: functional, cell-based;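 further: luciferase signal from cell-cell fusion driven by HIV-1 clade B AD8 Env; potency is for inhibitors of fusion seen as a drop in luminescence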
Galanin receptor type 3 = Galanin receptor type 3 (Homo sapiens, UniProt O60755); experiment: Fluorescence-based cell-based primary high throughput dose response assay to identify antagonists of the Galanin Receptor 3 (GalR3).; format: functional
[13] = biological target: T7, Corticotropin-releasing factor receptor 2/Corticotropin-releasing factor-binding protein; experiment: Dose Response confirmation of uHTS hits for small molecule antagonists of the CRF-binding protein and CRF-R2 receptor complex.; format: functional; settings: read-out: IC50_Mean
cells [14] = format: functional, cell-based; settings: HEK-CNG
Cytochrome P450 2C9 = Cytochrome P450 2C9 (Homo sapiens, UniProt P11712)
[15] = off-target signal loss in HeLa-CEM21 co-culture – HeLa F-luc CTL cells, cherry-picked, counter-screen for HIV-1 Env fusion inhibitor project, dose response (AID 652040); format: functional, cell-based;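 further: potency for signal decrease marking cytotoxic or nonspecific inhibition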
[16] = biological target: T8, Trace amine-associated receptor 1 (Homo sapiens, UniProt Q96RJ0); experiment: Fluorescence-based cell-based high throughput dose response assay to identify agonists of the human trace amine associated receptor 1 (TAAR1).; format: functional
T8 sequence (Q96RJ0 whole entry): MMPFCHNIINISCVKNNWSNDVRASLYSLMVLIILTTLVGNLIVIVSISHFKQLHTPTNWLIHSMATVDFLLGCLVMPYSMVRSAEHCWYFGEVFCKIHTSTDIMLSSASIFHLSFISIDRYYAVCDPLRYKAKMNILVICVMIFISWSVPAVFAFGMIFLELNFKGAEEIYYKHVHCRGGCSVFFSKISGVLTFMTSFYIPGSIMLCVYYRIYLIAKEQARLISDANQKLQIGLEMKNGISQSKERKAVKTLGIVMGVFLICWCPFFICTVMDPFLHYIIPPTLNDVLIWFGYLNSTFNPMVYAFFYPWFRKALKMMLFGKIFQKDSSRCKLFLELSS

cells [17] = format: functional, cell-based
[18] = biological target: T8, Trace amine-associated receptor 1; experiment: Counterscreen for agonists of the human trace amine associated receptor 1 (hTAAR1): Fluorescence-based cell-based high throughput dose response assay to identify hTAAR1 agonist that also desensitize TAAR1 receptor response.; format: functional
cells [19] = format: functional, cell-based; remark: listed apart in the source
[20] = mouse fibroblast viability loss – cell-based, cherry-pick samples, set 2, cytotoxicity control for T. cruzi growth inhibitor project, dose response (AID 651817); format: functional; settings: NIH3T3

Galanin receptor type 3, sequence (O60755 whole entry): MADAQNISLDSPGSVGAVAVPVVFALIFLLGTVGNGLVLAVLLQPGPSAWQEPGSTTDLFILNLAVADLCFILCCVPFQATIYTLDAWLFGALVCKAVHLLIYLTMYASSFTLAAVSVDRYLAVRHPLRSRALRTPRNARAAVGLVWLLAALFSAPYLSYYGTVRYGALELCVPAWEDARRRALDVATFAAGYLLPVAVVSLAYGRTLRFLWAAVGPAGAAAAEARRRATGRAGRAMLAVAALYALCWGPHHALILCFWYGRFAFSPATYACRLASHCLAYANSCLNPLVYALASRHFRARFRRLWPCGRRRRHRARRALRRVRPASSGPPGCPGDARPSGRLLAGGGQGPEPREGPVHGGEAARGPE
Cytochrome P450 2C9, sequence (P11712 whole entry, the tested form may be a part): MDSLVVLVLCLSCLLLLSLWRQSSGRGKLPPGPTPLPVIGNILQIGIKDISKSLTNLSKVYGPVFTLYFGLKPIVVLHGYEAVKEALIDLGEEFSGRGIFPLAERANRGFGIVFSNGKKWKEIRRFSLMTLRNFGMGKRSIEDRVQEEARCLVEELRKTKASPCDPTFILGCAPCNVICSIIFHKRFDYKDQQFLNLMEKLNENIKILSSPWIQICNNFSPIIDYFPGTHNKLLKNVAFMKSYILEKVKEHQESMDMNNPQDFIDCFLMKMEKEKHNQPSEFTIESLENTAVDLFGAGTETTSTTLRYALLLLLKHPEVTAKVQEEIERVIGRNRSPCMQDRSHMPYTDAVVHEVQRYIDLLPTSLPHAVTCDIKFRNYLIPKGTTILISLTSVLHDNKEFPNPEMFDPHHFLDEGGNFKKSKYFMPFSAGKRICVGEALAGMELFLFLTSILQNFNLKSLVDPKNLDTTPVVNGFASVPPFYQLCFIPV

Cc1n[nH]c(O)c1C(c1ccc(-c2ccccc2C(=O)O)o1)c1c(C)n[nH]c1O
EC50 (Protein RecA): 0.256 µM (active)
EC50 [1]: 148 µM (active)
IC50 [2]: 16.4 µM (active)
EC50 [3]: 37 µM (active)
AC50 [4]: 0.335 µM (active)
IC50 [5]: > 128 µM (inactive)
IC50 [6]: > 100 µM (inactive)
AC50 [7]: 82.1 µM (active)

COc1cc(NC(=O)c2ccc(-c3csc(C)n3)cc2)c(OC)cc1Cl
AC50 [8]: 38.2 µM (active)

Cc1nn2c(COc3ccc(NC(=O)c4ccccc4Cl)cc3)nnc2c2ccccc12
EC50 [9]: 2.06 µM (active)
EC50 (Streptococcus): 1.36 µM (active)
AC50 [10]: 2.59 µM (active)
AC50 [8]: > 52 µM (inactive)

Cc1nn(C)c(Cl)c1NC(=O)OCc1ccc(Cl)cc1Cl
EC50 [11]: > 53 µM (inactive)
AC50 [12]: 22.5 µM (active)
IC50 (Galanin receptor type 3): 2.13 µM (active)
IC50 [13]: > 47.1 µM (inactive)
EC50 (cells [14]): > 29.9 µM (inactive)
AC50 (Cytochrome P450 2C9): inconclusive
AC50 [15]: > 70 µM (inactive)

O=C(CSC1=Nc2ccc(Cl)cc2S(=O)(=O)N1)NCCc1ccccc1
EC50 [16]: 0.295 µM (active)
EC50 (cells [17]): > 29.9 µM (inactive)
IC50 [18]: 2.41 µM (active)
IC50 (cells [19]): > 29.9 µM (inactive)

C[C@H](CO)N1C[C@H](C)[C@H](CN(C)Cc2ccc(Cl)c(Cl)c2)Oc2c(NC(=O)c3ccncc3)cccc2C1=O
AC50 [20]: 39 µM (inactive)

COc1ccc(CN(C)C[C@H]2Oc3c(NC(=O)Nc4ccc(C(F)(F)F)cc4)cccc3C(=O)N([C@@H](C)CO)C[C@@H]2C)cc1
AC50 [20]: 14.4 µM (active)
